Measurements from patent publication US8106055B2, “Substituted amide compounds” (Gruenenthal GmbH, priority 2007, dated 2012).

Columns and labels:
[1] = target: T1, bradykinin 1 receptor (B1R) of the rat (Rattus norvegicus, UniProt P97583); test: Functional investigation on the rat bradykinin 1 receptor (B1R), Ca2+ FLIPR assay in CHO K1 rB1R cells; type: cell-based; conditions: CHO-K1, B1R antagonism rat; test substance 10 μM; Ca2+ FLIPR, CHO K1 rB1R cells; read-out: B1R Ant. r [10 μM] % Inhibition
T1 construct: expressed in transfected cells; host or cells: CHO K1 cells
T1 sequence (P97583 1-337): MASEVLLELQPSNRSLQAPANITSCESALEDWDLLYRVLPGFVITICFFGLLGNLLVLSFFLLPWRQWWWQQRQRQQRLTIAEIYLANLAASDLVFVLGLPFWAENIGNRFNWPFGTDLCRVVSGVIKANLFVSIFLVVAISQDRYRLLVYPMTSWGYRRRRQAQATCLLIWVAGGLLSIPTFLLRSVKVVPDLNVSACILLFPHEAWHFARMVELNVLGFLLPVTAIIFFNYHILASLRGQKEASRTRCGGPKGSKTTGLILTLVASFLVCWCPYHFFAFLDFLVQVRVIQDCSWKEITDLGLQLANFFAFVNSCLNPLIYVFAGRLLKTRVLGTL
Source text: (§1) Functional Investigation on the Human Bradykinin 1 Receptor (B1R)
(§2) The agonistic or antagonistic action of substances can be determined on the bradykinin 1 receptor (B1R) of the human species and rats with the following assay. In accordance with this assay, the Ca^2+ inflow through the channel is quantified with the aid of a Ca^2=-sensitive dyestuff (type Fluo-4, Molecular Probes Europe BV, Leiden, Holland) in a fluorescent imaging plate reader (FLIPR, Molecular Devices, Sunnyvale, USA).
(§3) Chinese hamster ovary cells (CHO K1 cells) transfected stably with the human B1R gene (hB1R cells) or the B1R gene of the rat (rB1R cells) are used. For functional studies, these cells are plated out on black 96-well plates with a clear base (BD Biosciences, Heidelberg, Germany or Greiner, Frickenhausen, Germany) in a density of 20,000-35,000 cells/well. The cells are left overnight at 37° C. and 5% CO2 in culture medium (hB1R cells: Nutrient Mixture Ham's F12, Gibco Invitrogen GmbH, Karlsruhe, Germany or DMEM, Sigma-Aldrich, Taufkirchen, Germany; rB1R cells: D-MEM/F12, Gibco Invitrogen GmbH, Karlsruhe, Germany) with 10 vol. % of FBS (foetal bovine serum, Gibco Invitrogen GmbH, Karlsruhe, Germany or PAN Biotech GmbH, Aidenbach, Germany).
(§4) On the following day, the cells are loaded for 60 min at 37° C. with 2.13 μM Fluo-4 (Molecular Probes Europe BV, Leiden, The Netherlands) in HBSS buffer (Hank's buffered saline solution, Gibco Invitrogen GmbH, Karlsruhe, Germany) with 2.5 mM probenecid (Sigma-Aldrich, Taufkirchen, Germany) and 10 mM HEPES (Sigma-Aldrich, Taufkirchen, Germany). The plates are then washed 2× with HBSS buffer, and HBSS buffer which additionally contains 0.1% of BSA (bovine serum albumin; Sigma-Aldrich, Taufkirchen, Germany), 5.6 mM glucose and 0.05% of gelatine (Merck KGaA, Darmstadt, Germany) is added. After a further incubation of 20 minutes at room temperature, the plates are inserted into the FLIPR for the Ca^2+ measurement.
(§5) Alternatively, the plates are washed with buffer A (15 mM HEPES, 80 mM NaCl, 5 mM KCl, 1.2 mM CaCl2, 0.7 mM MgSO4, 2 g/l glucose, 2.5 mM probenecid), buffer A is added and the plates are loaded with 2.5 μM Fluo-4 and 0.025% of Pluronic F127 (Sigma-Aldrich, Taufkirchen, Germany). Thereafter, the cells are washed 2× with buffer A and incubated for 30 minutes with buffer A, which additionally contains 0.05% of BSA and 0.05% of gelatine, at room temperature and thereafter inserted into the FLIPR for the Ca^2+ measurement.
(§6) The Ca^2+-dependent fluorescence is measured before and after addition of substances (λex=488 nm, λem=540 nm). Quantification is by measurement of the highest fluorescence intensity (FC, fluorescence counts) over time.
(§7) The FLIPR protocol consists of 2 additions of substance. Test substances (10 μM) are first pipetted on to the cells and the Ca^2+ inflow is compared with the control (hB1R: Lys-Des-Arg^9-bradykinin >=50 nM; rB1R: Des-Arg^9-bradykinin 10 μM). This gives the information in % activation based on the Ca^2+ signal after addition of Lys-Des-Arg^9-bradykinin (>=50 nM) or Des-Arg^9-bradykinin (10 μM).
(§8) After incubation for 10-20 minutes, Lys-Des-Arg^9-bradykinin (hB1R) or Des-Arg^9-bradykinin (rB1R) is applied in the concentration of the EC80 and the inflow of Ca^2+ is likewise determined.
(§9) Antagonists lead to a suppression of the Ca^2+ inflow. % inhibition compared with the maximum achievable inhibition is calculated.
(§10) To determine the IC50 value, the substances are added in various concentrations. Duplicate or triplicate determinations (n=2 or n=3) are carried out, and these are repeated in at least one further independent experiment (N>=2).
(§11) Preferably, the compounds have a B1R antagonistic action on the human receptor and/or on the rat receptor. The following data are given by way of example in the following table: (In this, “B1R Ant. h” represents “B1R antagonism human” and “B1R Ant. r” represents “B1R antagonism rat”)

[2] = target: T2, human bradykinin 1 receptor (B1R) (Homo sapiens, UniProt P46663); test: Functional investigation on the human bradykinin 1 receptor (B1R), Ca2+ FLIPR assay in CHO K1 hB1R cells; type: cell-based; conditions: CHO-K1, B1R antagonism human; test substance 10 μM; Ca2+ FLIPR, CHO K1 hB1R cells; read-out: B1R Ant. h [10 μM] % Inhibition
T2 construct: expressed in transfected cells; host or cells: CHO K1 cells
T2 sequence (P46663 1-353): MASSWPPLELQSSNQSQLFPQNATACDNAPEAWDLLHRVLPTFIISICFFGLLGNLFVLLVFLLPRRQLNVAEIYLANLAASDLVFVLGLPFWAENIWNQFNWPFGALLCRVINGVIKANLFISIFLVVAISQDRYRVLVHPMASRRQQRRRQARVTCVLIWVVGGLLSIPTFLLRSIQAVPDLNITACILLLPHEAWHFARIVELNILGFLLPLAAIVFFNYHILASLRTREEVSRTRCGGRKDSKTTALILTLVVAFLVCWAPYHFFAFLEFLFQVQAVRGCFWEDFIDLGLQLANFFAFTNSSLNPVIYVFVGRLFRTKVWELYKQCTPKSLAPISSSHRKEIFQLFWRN
Source text: as §1, §2, §3, §4, §5, §6, §7, §8, §9, §10, §11

Compound: Cc1cc(C)c(-c2noc(C(=O)NCC(=O)NC3CCC(C(c4ccccc4)N(C)C)CC3)n2)c(C)c1 (stereo not drawn) [Example 772, 3-(2,4,6-trimethyl-phenyl)-[1,2,4]oxadiazole-5-carboxylic acid {[4-(dimethylamino-phenyl-methyl)-cyclohexylcarbamoyl]-methyl}-amide]
- inhibition at 10 µM [1]: 41%
- inhibition at 10 µM [2]: 11%

Compound: CN(C)C(c1ccccc1)C1CCC(NC(=O)CCNC(=O)c2nc(-c3ccc(Cl)cc3Cl)no2)CC1 (stereo not drawn) [Example 773, 3-(2,4-dichloro-phenyl)-[1,2,4]oxadiazole-5-carboxylic acid {2-[4-(dimethylamino-phenyl-methyl)-cyclohexylcarbamoyl]-ethyl}-amide]
- inhibition at 10 µM [1]: 17%
- inhibition at 10 µM [2]: 20%

Compound: COc1ccc(-c2noc(C(=O)NCCC(=O)NC3CCC(C(c4ccccc4)N(C)C)CC3)n2)cc1OC (stereo not drawn) [Example 774, 3-(3,4-dimethoxy-phenyl)-[1,2,4]oxadiazole-5-carboxylic acid {2-[4-(dimethylamino-phenyl-methyl)-cyclohexylcarbamoyl]-ethyl}-amide]
- inhibition at 10 µM [1]: 2%
- inhibition at 10 µM [2]: -8%

Compound: COc1ccc(-c2noc(C(=O)NCC(=O)NC3CCC(C(c4ccccc4)N(C)C)CC3)n2)cc1OC (stereo not drawn) [Example 775, 3-(3,4-dimethoxy-phenyl)-[1,2,4]oxadiazole-5-carboxylic acid {[4-(dimethylamino-phenyl-methyl)-cyclohexylcarbamoyl]-methyl}-amide]
- inhibition at 10 µM [1]: 20%
- inhibition at 10 µM [2]: -7%

Compound: CN(C)C(c1ccccc1)C1CCC(NC(=O)CCNC(=O)c2nc(-c3cccs3)no2)CC1 (stereo not drawn) [Example 776, 3-thiophen-2-yl-[1,2,4]oxadiazole-5-carboxylic acid {2-[4-(dimethylamino-phenyl-methyl)-cyclohexylcarbamoyl]-ethyl}-amide]
- inhibition at 10 µM [1]: 30%
- inhibition at 10 µM [2]: -22%

Compound: CN(C)C(c1cccs1)C1CCC(NC(=O)CNC(=O)c2nc(-c3ccc(C(F)(F)F)cc3)no2)CC1 (stereo not drawn) [Example 777, 3-(4-trifluoromethyl-phenyl)-[1,2,4]oxadiazole-5-carboxylic acid {[4-(dimethylamino-thiophen-2-yl-methyl)-cyclohexylcarbamoyl]-methyl}-amide]
- inhibition at 10 µM [1]: 27%
- inhibition at 10 µM [2]: -1%

Compound: CN(C)C(c1cccc(F)c1)C1CCC(CNC(=O)CNC(=O)c2nc(-c3ccc(C(F)(F)F)cc3)no2)CC1 (stereo not drawn) [Example 778, 3-(4-trifluoromethyl-phenyl)-[1,2,4]oxadiazole-5-carboxylic acid [({4-[dimethylamino-(3-fluoro-phenyl)-methyl]-cyclohexylmethyl}-carbamoyl)-methyl]-amide]
- inhibition at 10 µM [1]: 12%
- inhibition at 10 µM [2]: -1%

Compound: CN(C)C(c1cccs1)C1CCC(NC(=O)CNC(=O)c2nc(-c3ccc(C(C)(C)C)cc3)no2)CC1 (stereo not drawn) [Example 779, 3-(4-tert-butyl-phenyl)-[1,2,4]oxadiazole-5-carboxylic acid {[4-(dimethylamino-thiophen-2-yl-methyl)-cyclohexylcarbamoyl]-methyl}-amide]
- inhibition at 10 µM [1]: -13%
- inhibition at 10 µM [2]: -10%

Compound: CN(C)C(c1cccc(F)c1)C1CCC(CNC(=O)CCNC(=O)c2nc(-c3cccs3)no2)CC1 (stereo not drawn) [Example 780, 3-thiophen-2-yl-[1,2,4]oxadiazole-5-carboxylic acid [2-({4-[dimethylamino-(3-fluoro-phenyl)-methyl]-cyclohexylmethyl}-carbamoyl)-ethyl]-amide]
- inhibition at 10 µM [1]: -2%
- inhibition at 10 µM [2]: -12%

Compound: CN(C)C(c1cccc(F)c1)C1CCC(CNC(=O)CNC(=O)c2nc(CS(=O)(=O)c3ccccc3)no2)CC1 (stereo not drawn) [Example 781, 3-benzenesulfonylmethyl-[1,2,4]oxadiazole-5-carboxylic acid [({4-[dimethylamino-(3-fluoro-phenyl)-methyl]-cyclohexylmethyl}-carbamoyl)-methyl]-amide]
- inhibition at 10 µM [1]: -35%
- inhibition at 10 µM [2]: -4%

Compound: COc1ccccc1-c1noc(C(=O)NCC(=O)NC2CCC(C(CCc3ccccc3)N(C)C)CC2)n1 (stereo not drawn) [Example 782, 3-(2-methoxy-phenyl)-[1,2,4]oxadiazole-5-carboxylic acid {[4-(1-dimethylamino-3-phenyl-propyl)-cyclohexylcarbamoyl]-methyl}-amide]
- inhibition at 10 µM [1]: -11%
- inhibition at 10 µM [2]: -6%

Compound: CN(C)C(CCc1ccccc1)C1CCC(NC(=O)CNC(=O)c2nc(-c3ccc4c(c3)OCO4)no2)CC1 (stereo not drawn) [Example 783, 3-benzo[1,3]dioxol-5-yl-[1,2,4]oxadiazole-5-carboxylic acid {[4-(1-dimethylamino-3-phenyl-propyl)-cyclohexylcarbamoyl]-methyl}-amide]
- inhibition at 10 µM [1]: -28%
- inhibition at 10 µM [2]: 45%

Compound: CN(C)C(CCc1ccccc1)C1CCC(NC(=O)CNC(=O)c2nc(-c3cccs3)no2)CC1 (stereo not drawn) [Example 784, 3-thiophen-2-yl-[1,2,4]oxadiazole-5-carboxylic acid {[4-(1-dimethylamino-3-phenyl-propyl)-cyclohexylcarbamoyl]-methyl}-amide]
- inhibition at 10 µM [1]: -1%
- inhibition at 10 µM [2]: 76%

Compound: CN(C)C(CCc1ccccc1)C1CCC(NC(=O)CNC(=O)c2nc(-c3ccc(C(F)(F)F)cc3)no2)CC1 (stereo not drawn) [Example 785, 3-(4-trifluoromethyl-phenyl)-[1,2,4]oxadiazole-5-carboxylic acid {[4-(1-dimethylamino-3-phenyl-propyl)-cyclohexylcarbamoyl]-methyl}-amide]
- inhibition at 10 µM [1]: 32%
- inhibition at 10 µM [2]: 76%

Compound: CN(C)C(CCc1ccccc1)C1CCC(NC(=O)CNC(=O)c2nc(-c3ccc(C(C)(C)C)cc3)no2)CC1 (stereo not drawn) [Example 786, 3-(4-tert-butyl-phenyl)-[1,2,4]oxadiazole-5-carboxylic acid {[4-(1-dimethylamino-3-phenyl-propyl)-cyclohexylcarbamoyl]-methyl}-amide]
- inhibition at 10 µM [1]: -4%
- inhibition at 10 µM [2]: 35%
